Drawing on ChEMBL document CHEMBL1817542, “Aromatic phosphonates inhibit the lysophospholipase D activity of autotaxin” (Bioorg Med Chem Lett, 2011), this text covers Ki, inhibition and solubility for twelve compounds.

The source made the active and inactive calls. The rule behind the calls is not given here.

Series [1] concerns the target T1, Autotaxin (Homo sapiens, UniProt Q13822). Description: Inhibition of human recombinant ATX lysophospholipase activity expressed in insect sf9 cells using FS-3 fluorogenic substrate preincubated for 10 mins measured after 5 and 25 mins by fluorometric analysis.
Series [2] addresses T1, Autotaxin. Description: Inhibition of human recombinant ATX lysophospholipase activity expressed in insect sf9 cells using FS-3 fluorogenic substrate at 10 uM preincubated for 10 mins measured after 5 and 25 mins by fluorometric analysis.
Series [3] can be described thus: Aqueous solubility of the compound. Type of series: physicochemical. Particulars: buffer.

With `CCCCCCCCCCCCCC(=O)Nc1ccc(C(O)P(=O)(O)O)cc1.NC1CCCCC1` (stereo not given), the Ki (as a rule, a measure of affinity in units of concentration, obtained from inhibition or displacement) at Autotaxin [1] came out at 0.024 µM.

As for `CCCCCCCCCCCCCC(=O)Nc1ccc(C(F)P(=O)(O)O)cc1.NC1CCCCC1` (stereo not given), on Autotaxin [1], the inhibitory constant (Ki) is 0.0061 µM.

For `CCOP(=O)(Cc1ccc(N)cc1)OCC`, the inhibition entry at Autotaxin [2] was “inactive”. Besides, the solubility – broadly, the dissolved amount per volume that the medium holds – in series [3] is on record as “soluble”.

For the compound `COCCOCCOCCC(=O)Nc1ccc(CP(=O)(O)O)cc1.NC1CCCCC1`, the inhibition entry at Autotaxin [2] is “inactive”.

For `CCCCCCCCCC(=O)Nc1ccc(CP(=O)(O)O)cc1.NC1CCCCC1`, the Ki at Autotaxin [1] amounted to 0.018 µM.

`CCCCCCC(=O)Nc1ccc(C(F)P(=O)(O)O)cc1.NC1CCCCC1` (stereo not given): the Ki at Autotaxin [1] is 0.834 µM.

Consider `CCCCCCC(=O)Nc1ccc(CP(=O)(O)O)cc1.NC1CCCCC1`, for which the Ki on Autotaxin [1] was found to be 0.512 µM.

Turning to `CCCCCCC(=O)Nc1ccc(C(O)P(=O)(O)O)cc1.NC1CCCCC1` (stereo not given), the Ki on Autotaxin [1] was found to be 1.01 µM.

As to `CCCCCCCCCCCCCC(=O)Nc1ccc(CP(=O)(O)O)cc1.NC1CCCCC1`, at Autotaxin [1], the Ki stood at 0.009 µM. Further, in series [3] (read-out: solubility), the solubility was 1000 µg/mL.

In the case of `CCCCCCCCCC(=O)Nc1ccc(C(O)P(=O)(O)O)cc1.NC1CCCCC1` (stereo not given), the Ki on Autotaxin [1] worked out at 0.0242 µM. The solubility in series [3] (read-out: solubility) was 4000 µg/mL.

Turning to `CCCCCCCCCC(=O)Nc1ccc(C(F)P(=O)(O)O)cc1.NC1CCCCC1` (stereo not given), the Ki at Autotaxin [1] amounted to 0.072 µM.

Turning to `CCCCCCCCCCCCCC(=O)Nc1ccc(C(Br)P(=O)(O)O)cc1.NC1CCCCC1` (stereo not given), the Ki on Autotaxin [1] stood at 0.0081 µM.
